# Test results taken from PubChem BioAssay AID342 (DTP/NCI, 2004).
# Several values for one entry are separate records, joined by “and”; a condition that tells them apart may be missing. Identical values can stand only once.
# Test system: Swiss mice, Sarcoma 180 sc, mean tumor weight T/C
# Assay: NCI In Vivo Anticancer Drug Screen. Data for tumor model Sarcoma 180 (subcutaneous) in Swiss mice
# Settings: endpoint: mean tumor weight, higher = larger tumour
# How it was run: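 T/C ratio: treated over vehicle-treated controls, measuring survival or tumor size in transplanted-tumor mice.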
# [1] = dose: 500.0 mg/kg/injection, schedule: Q01DX007 (ip), vehicle: carboxymethylcellulose (CMC)
smiles,measurement,setting,value
CCN(CC)c1ccc2cc3ccc(=[N+](CC)CC)cc-3oc2c1,T/C,"dose: 0.42 mg/kg/injection, schedule: Q#A X014 (ip), vehicle: carboxymethylcellulose (CMC)",84 % of control
same,T/C,"dose: 0.83 mg/kg/injection, schedule: Q#A X014 (ip), vehicle: carboxymethylcellulose (CMC)",106 % of control
same,T/C,"dose: 1.67 mg/kg/injection, schedule: Q#A X014 (ip), vehicle: carboxymethylcellulose (CMC)",82 % of control
same,T/C,"dose: 3.35 mg/kg/injection, schedule: Q#A X014 (ip), vehicle: carboxymethylcellulose (CMC)",73 % of control
same,T/C,"dose: 6.25 mg/kg/injection, schedule: Q01DX007 (ip), vehicle: other",111 % of control
same,T/C,"dose: 12.5 mg/kg/injection, schedule: Q01DX007 (ip), vehicle: other",98 % of control
O=CCC(O)C(O)C(O)CO (configuration not stated),T/C,"dose: 125.0 mg/kg/injection, schedule: Q01DX007 (ip), vehicle: carboxymethylcellulose (CMC)",86 % of control
same,T/C,"dose: 250.0 mg/kg/injection, schedule: Q01DX007 (ip), vehicle: carboxymethylcellulose (CMC)",75 % of control
same,T/C,[1],76 % of control
same,T/C,"dose: 1000.0 mg/kg/injection, schedule: Q01DX007 (ip), vehicle: carboxymethylcellulose (CMC)",67 % of control
Cc1ncc([N+](=O)[O-])n1CCCl,T/C,"dose: 62.5 mg/kg/injection, schedule: Q01DX007 (ip), vehicle: saline",108 % of control
same,T/C,"dose: 250.0 mg/kg/injection, schedule: Q01DX007 (ip), vehicle: saline",78 % of control
Nc1nc(=O)n(C2CC(O)C(CO)O2)cc1Br (configuration not stated),T/C,"dose: 62.5 mg/kg/injection, schedule: Q#A X014 (ip), vehicle: carboxymethylcellulose (CMC)",58 % of control
same,T/C,"dose: 125.0 mg/kg/injection, schedule: Q#A X014 (ip), vehicle: carboxymethylcellulose (CMC)",57 % of control
same,T/C,"dose: 250.0 mg/kg/injection, schedule: Q#A X014 (ip), vehicle: carboxymethylcellulose (CMC)",50 % of control
CC1=C2C(=C[C@@](C)(CO)[C@@H]2O)C(=O)[C@](C)(O)C12CC2,T/C,"dose: 0.8 mg/kg/injection, schedule: Q01DX007 (ip), vehicle: saline",67 % of control and 78 % of control
same,T/C,"dose: 1.6 mg/kg/injection, schedule: Q01DX007 (ip), vehicle: saline",45 % of control
CCCC(=O)OCC1OC(n2cnc3c(=S)nc(N)[nH]c32)C(OC(=O)CCC)C1OC(=O)CCC (configuration not stated),T/C,"dose: 4.1 mg/kg/injection, schedule: Q01DX007 (ip), vehicle: carboxymethylcellulose (CMC)",52 % of control
same,T/C,"dose: 6.2 mg/kg/injection, schedule: Q01DX007 (ip), vehicle: carboxymethylcellulose (CMC)",72 % of control
same,T/C,"dose: 9.3 mg/kg/injection, schedule: Q01DX007 (ip), vehicle: carboxymethylcellulose (CMC)",45 % of control
same,T/C,"dose: 47.0 mg/kg/injection, schedule: Q01DX007 (ip), vehicle: carboxymethylcellulose (CMC)",39 % of control
CC=C(/C(=C/C)c1ccc(O)cc1)c1ccc(O)cc1,T/C,"dose: 15.0 mg/kg/injection, schedule: Q01DX007 (ip), vehicle: carboxymethylcellulose (CMC)",52 % of control
same,T/C,"dose: 20.0 mg/kg/injection, schedule: Q01DX007 (ip), vehicle: carboxymethylcellulose (CMC)",42 % of control
same,T/C,"dose: 27.5 mg/kg/injection, schedule: Q#A X014 (ip), vehicle: carboxymethylcellulose (CMC)",40 % of control and 54 % of control
same,T/C,"dose: 30.0 mg/kg/injection, schedule: Q01DX007 (ip), vehicle: carboxymethylcellulose (CMC)",48 % of control
same,T/C,"dose: 44.0 mg/kg/injection, schedule: Q01DX007 (ip), vehicle: carboxymethylcellulose (CMC)",31 % of control and 40 % of control
same,T/C,"dose: 66.0 mg/kg/injection, schedule: Q01DX007 (ip), vehicle: carboxymethylcellulose (CMC)",35 % of control
same,T/C,"dose: 80.0 mg/kg/injection, schedule: Q01DX007 (sc), vehicle: carboxymethylcellulose (CMC)",58 % of control
same,T/C,"dose: 80.0 mg/kg/injection, schedule: Q01DX007 (sc), vehicle: steriod suspending solution",14 % of control
same,T/C,"dose: 94.0 mg/kg/injection, schedule: Q#A X014 (ip), vehicle: carboxymethylcellulose (CMC)",50 % of control and 69 % of control
same,T/C,"dose: 100.0 mg/kg/injection, schedule: Q01DX007 (ip), vehicle: carboxymethylcellulose (CMC)",52 % of control
same,T/C,"dose: 124.0 mg/kg/injection, schedule: Q01DX007 (ip), vehicle: carboxymethylcellulose (CMC)",104 % of control
same,T/C,"dose: 150.0 mg/kg/injection, schedule: Q01DX007 (ip), vehicle: carboxymethylcellulose (CMC)",39 % of control
same,T/C,"dose: 160.0 mg/kg/injection, schedule: Q01DX007 (sc), vehicle: carboxymethylcellulose (CMC)",52 % of control
same,T/C,"dose: 160.0 mg/kg/injection, schedule: Q01DX007 (sc), vehicle: steriod suspending solution",23 % of control
same,T/C,"dose: 188.0 mg/kg/injection, schedule: Q01DX007 (ip), vehicle: carboxymethylcellulose (CMC)",84 % of control
same,T/C,"dose: 225.0 mg/kg/injection, schedule: Q01DX007 (ip), vehicle: carboxymethylcellulose (CMC)",28 % of control and 31 % of control
same,T/C,"dose: 277.0 mg/kg/injection, schedule: Q01DX007 (ip), vehicle: carboxymethylcellulose (CMC)",71 % of control
same,T/C,"dose: 281.0 mg/kg/injection, schedule: Q01DX007 (ip), vehicle: carboxymethylcellulose (CMC)",63 % of control
same,T/C,"dose: 320.0 mg/kg/injection, schedule: Q01DX007 (sc), vehicle: carboxymethylcellulose (CMC)",30 % of control
same,T/C,"dose: 320.0 mg/kg/injection, schedule: Q01DX007 (sc), vehicle: steriod suspending solution",23 % of control
same,T/C,"dose: 333.0 mg/kg/injection, schedule: Q01DX007 (ip), vehicle: carboxymethylcellulose (CMC)",29 % of control
same,T/C,"dose: 422.0 mg/kg/injection, schedule: Q01DX007 (ip), vehicle: carboxymethylcellulose (CMC)",58 % of control and 65 % of control
same,T/C,[1],24 % of control and 38 % of control
same,T/C,"dose: 630.0 mg/kg/injection, schedule: Q01DX007 (ip), vehicle: carboxymethylcellulose (CMC)",63 % of control
same,T/C,"dose: 640.0 mg/kg/injection, schedule: Q01DX007 (sc), vehicle: carboxymethylcellulose (CMC)",47 % of control
same,T/C,"dose: 640.0 mg/kg/injection, schedule: Q01DX007 (sc), vehicle: steriod suspending solution",17 % of control
same,T/C,"dose: 750.0 mg/kg/injection, schedule: Q01DX007 (ip), vehicle: carboxymethylcellulose (CMC)",35 % of control
same,T/C,"dose: 945.0 mg/kg/injection, schedule: Q01DX007 (ip), vehicle: carboxymethylcellulose (CMC)",44 % of control
OC(CBr)C(O)C(O)C(O)CBr (configuration not stated),T/C,"dose: 25.0 mg/kg/injection, schedule: Q01DX007 (ip), vehicle: saline",106 % of control
same,T/C,"dose: 50.0 mg/kg/injection, schedule: Q01DX007 (ip), vehicle: saline",95 % of control and 117 % of control
same,T/C,"dose: 100.0 mg/kg/injection, schedule: Q01DX007 (ip), vehicle: saline",104 % of control and 107 % of control
same,T/C,"dose: 400.0 mg/kg/injection, schedule: Q01DX007 (ip), vehicle: saline",88 % of control
CC(=O)NNC(=O)c1ccccn1,T/C,"dose: 37.5 mg/kg/injection, schedule: Q01DX007 (ip), vehicle: water",112 % of control
same,T/C,"dose: 75.0 mg/kg/injection, schedule: Q01DX007 (ip), vehicle: water",104 % of control
same,T/C,"dose: 100.0 mg/kg/injection, schedule: Q01DX007 (ip), vehicle: water",89 % of control
same,T/C,"dose: 200.0 mg/kg/injection, schedule: Q01DX007 (ip), vehicle: water",98 % of control
CC(C)OC(=O)C1(N)CCCC1,T/C,"dose: 33.0 mg/kg/injection, schedule: Q#A X014 (ip), vehicle: saline",61 % of control
same,T/C,"dose: 50.0 mg/kg/injection, schedule: Q#A X014 (ip), vehicle: saline",67 % of control
same,T/C,"dose: 75.0 mg/kg/injection, schedule: Q#A X014 (ip), vehicle: saline",49 % of control
same,T/C,"dose: 112.5 mg/kg/injection, schedule: Q#A X014 (ip), vehicle: saline",20 % of control
COC1C(OC(=O)/C=C/C=C/C=C/C=C/C(=O)O)CCC2(CO2)C1C1(C)OC1CC=C(C)C (configuration not stated),T/C,"dose: 2.5 mg/kg/injection, schedule: Q#A X014 (ip), vehicle: saline",70 % of control
same,T/C,"dose: 5.0 mg/kg/injection, schedule: Q#A X014 (ip), vehicle: methylcellulose (MC)",76 % of control
same,T/C,"dose: 5.0 mg/kg/injection, schedule: Q#A X014 (ip), vehicle: saline",54 % of control
same,T/C,"dose: 6.0 mg/kg/injection, schedule: Q01DX007 (ip), vehicle: carboxymethylcellulose (CMC)",62 % of control
same,T/C,"dose: 6.3 mg/kg/injection, schedule: Q01DX007 (ip), vehicle: carboxymethylcellulose (CMC)",58 % of control
same,T/C,"dose: 10.0 mg/kg/injection, schedule: Q#A X014 (ip), vehicle: methylcellulose (MC)",50 % of control
same,T/C,"dose: 10.0 mg/kg/injection, schedule: Q#A X014 (ip), vehicle: saline",58 % of control
same,T/C,"dose: 12.0 mg/kg/injection, schedule: Q01DX007 (ip), vehicle: carboxymethylcellulose (CMC)",60 % of control
same,T/C,"dose: 12.5 mg/kg/injection, schedule: Q01DX007 (ip), vehicle: carboxymethylcellulose (CMC)",84 % of control
same,T/C,"dose: 20.0 mg/kg/injection, schedule: Q#A X014 (ip), vehicle: methylcellulose (MC)",50 % of control
same,T/C,"dose: 20.0 mg/kg/injection, schedule: Q#A X014 (ip), vehicle: saline",51 % of control
same,T/C,"dose: 25.0 mg/kg/injection, schedule: Q01DX007 (ip), vehicle: carboxymethylcellulose (CMC)",41 % of control and 53 % of control and 63 % of control
same,T/C,"dose: 40.0 mg/kg/injection, schedule: Q#A X014 (ip), vehicle: methylcellulose (MC)",38 % of control
same,T/C,"dose: 40.0 mg/kg/injection, schedule: Q#A X014 (ip), vehicle: saline",39 % of control
same,T/C,"dose: 80.0 mg/kg/injection, schedule: Q#A X014 (ip), vehicle: methylcellulose (MC)",19 % of control
same,T/C,"dose: 200.0 mg/kg/injection, schedule: Q01DX007 (ip), vehicle: carboxymethylcellulose (CMC)",17 % of control and 36 % of control
